For 34 compounds, pEC50 results are on record in patent US20230226074A1, “METHODS OF USE FOR PYRIMIDINES AS FERROPORTIN INHIBITORS” (Global Blood Therapeutics, Inc., priority 2020, published 2023).

As a reminder, the pEC50 is the EC50 on a negative log10 scale, so that one unit is a factor of ten. A lower pEC50 goes with a large EC50.

This assay deals with T1, human ferroportin (Homo sapiens, UniProt Q9NP59).
T1 construct: luciferase reporter (probably NanoLuc, inferred from the Nano-Glo Luciferase Assay System read-out); expressed in transfected cells; host or cells: CHO cells, stably transfected, expression induced with doxycycline
T1 sequence (Q9NP59 1-571): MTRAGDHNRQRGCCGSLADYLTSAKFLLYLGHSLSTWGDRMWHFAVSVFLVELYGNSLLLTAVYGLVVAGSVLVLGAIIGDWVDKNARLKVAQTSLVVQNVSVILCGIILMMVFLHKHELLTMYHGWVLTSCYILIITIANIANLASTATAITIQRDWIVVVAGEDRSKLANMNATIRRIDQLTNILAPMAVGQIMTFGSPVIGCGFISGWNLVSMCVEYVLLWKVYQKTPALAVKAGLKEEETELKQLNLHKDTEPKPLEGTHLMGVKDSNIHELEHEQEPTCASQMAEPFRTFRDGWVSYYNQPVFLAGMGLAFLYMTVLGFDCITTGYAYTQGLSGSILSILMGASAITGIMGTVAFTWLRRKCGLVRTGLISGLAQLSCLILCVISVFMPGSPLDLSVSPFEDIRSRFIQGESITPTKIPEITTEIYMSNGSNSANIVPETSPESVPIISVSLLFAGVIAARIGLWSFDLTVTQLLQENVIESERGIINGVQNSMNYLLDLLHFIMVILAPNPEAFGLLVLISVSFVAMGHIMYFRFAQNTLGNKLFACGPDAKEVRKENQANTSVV
In words: In-vitro ferroportin internalization assay (luciferase reporter). The assay is classed as cell-based. The settings on record: average pEC50; stably-transfected CHO cell line expressing human ferroportin tagged to a luciferase reporter; 6 h incubation with test compound. As to the method: The protocol for this assay is generally as described in WO2018/128828, incorporated herein by reference in its entirety. Functional internalization of ferroportin protein was measured using a stably-transfected CHO cell line expressing the human ferroportin tagged to a luciferase reporter. Cells were plated for 24 h in the presence of ferric ammonium citrate (FAC). Ferroportin protein expression was induced with doxycycline for 24 h. The next day, the compounds were added. Test compounds were dissolved in DMSO. Cells were incubated with the test compounds for 6 h, and subsequently luciferase activity was measured using the Nano-Glo Luciferase Assay System and Glomax (Promega, Madison, Wis.). The average pEC50 was determined for the test compounds.
A general note: A reporter such as luciferase makes a cellular process visible.

Structures are written as SMILES.

In turn, `c1ccc(-c2csc3nc(-c4ccccn4)nc(N4CCN(c5ccccc5)CC4)c23)cc1` [Compound 206, 1-phenyl-4-[5-phenyl-2-(pyridin-2-yl)thieno[2,3-d]pyrimidin-4-yl]piperazine] yielded a pEC50 of 5.7.

For the compound `c1ccc(-c2csc3nc(-c4ccccn4)nc(N4CCN(c5ccccn5)CC4)c23)cc1` [Compound 207, 1-[5-phenyl-2-(pyridin-2-yl)thieno[2,3-d]pyrimidin-4-yl]-4-(pyridin-2-yl)piperazine], the pEC50 came out at 6.

`c1ccc(-c2csc3nc(-c4ccccn4)nc(N4CCOCC4)c23)cc1` [Compound 208, 4-[5-phenyl-2-(pyridin-2-yl)thieno[2,3-d]pyrimidin-4-yl]morpholine]: the pEC50 was 5.9.

`COCC(C)Nc1nc(-c2ccccn2)nc2sc(C)c(-c3ccccc3)c12` (stereo not shown) [Compound 209, N-(1-methoxypropan-2-yl)-6-methyl-5-phenyl-2-(pyridin-2-yl)thieno[2,3-d]pyrimidin-4-amine] registered a pEC50 of 6.

The compound `COCCN(CCOC)c1nc(-c2ccccn2)nc2sc(-c3ccccc3)cc12` [Compound 210, N,N-bis(2-methoxyethyl)-6-phenyl-2-(pyridin-2-yl)thieno[2,3-d]pyrimidin-4-amine] yielded a pEC50 of 6.4.

`COCCN(CCOC)c1nc(-c2ccccn2)nc2scc(-c3ccccc3)c12` [Compound 211, N,N-bis(2-methoxyethyl)-5-phenyl-2-(pyridin-2-yl)thieno[2,3-d]pyrimidin-4-amine] returned a pEC50 of 6.7.

The compound `COCCNc1nc(-c2ccccn2)nc2scc(-c3ccccc3)c12` [Compound 212, N-(2-methoxyethyl)-5-phenyl-2-(pyridin-2-yl)thieno[2,3-d]pyrimidin-4-amine] returned a pEC50 of 5.9.

For the compound `OCCOCCNc1nc(-c2ccccn2)nc2scc(-c3ccccc3)c12` [Compound 213, 2-(2-{[5-phenyl-2-(pyridin-2-yl)thieno[2,3-d]pyrimidin-4-yl]amino}ethoxy)ethan-1-ol], the pEC50 was 5.7.

Turning to `CC(=O)N1CCN(c2nc(-c3ccccn3)nc3scc(-c4ccccc4)c23)CC1` [Compound 214, 1-{4-[5-phenyl-2-(pyridin-2-yl)thieno[2,3-d]pyrimidin-4-yl]piperazin-1-yl}ethan-1-one], the pEC50 turned out to be 5.8. The pEC50 values of the last two compounds are within 0.2 log units of each other.

Take `CC(Nc1nc(-c2ccccn2)nc2scc(-c3ccccc3)c12)C(=O)NC(C)(C)C` (stereo not shown) [Compound 215, N-tert-butyl-2-{[5-phenyl-2-(pyridin-2-yl)thieno[2,3-d]pyrimidin-4-yl]amino}propanamide]: the pEC50 is on record as 6.8.

`CNC(=O)CCN(C)c1nc(-c2ccccn2)nc2scc(-c3ccccc3)c12` [Compound 216, N-methyl-3-{methyl[5-phenyl-2-(pyridin-2-yl)thieno[2,3-d]pyrimidin-4-yl]amino}propanamide] returned a pEC50 of 5.7.

`CNC(=O)CNc1nc(-c2ccccn2)nc2scc(-c3ccccc3)c12` [Compound 217, N-methyl-2-{[5-phenyl-2-(pyridin-2-yl)thieno[2,3-d]pyrimidin-4-yl]amino}acetamide] had a pEC50 of 5.3.

`O=C(CNc1nc(-c2ccccn2)nc2scc(-c3ccccc3)c12)NC1CC1` [Compound 218, N-cyclopropyl-2-{[5-phenyl-2-(pyridin-2-yl)thieno[2,3-d]pyrimidin-4-yl]amino}acetamide]: the pEC50 was 5.5.

As for `CCCNC(=O)CNc1nc(-c2ccccn2)nc2scc(-c3ccccc3)c12` [Compound 219, 2-{[5-phenyl-2-(pyridin-2-yl)thieno[2,3-d]pyrimidin-4-yl]amino}-N-propylacetamide], the pEC50 was 6.

`NC(=O)NCCCCNc1nc(-c2ccccn2)nc2scc(-c3ccccc3)c12` [Compound 220, (4-{[5-phenyl-2-(pyridin-2-yl)thieno[2,3-d]pyrimidin-4-yl]amino}butyl)urea] displayed a pEC50 of 6.

The compound `O=C1CCN(c2nc(-c3ccccn3)nc3scc(-c4ccccc4)c23)CC1` [Compound 221, 1-[5-phenyl-2-(pyridin-2-yl)thieno[2,3-d]pyrimidin-4-yl]piperidin-4-one] registered a pEC50 of 6.

On to `OC1CCN(c2nc(-c3ccccn3)nc3scc(-c4ccccc4)c23)CC1` [Compound 222, 1-[5-phenyl-2-(pyridin-2-yl)thieno[2,3-d]pyrimidin-4-yl]piperidin-4-ol], for which the pEC50 amounted to 6.

With `CN(CCO)c1nc(-c2ccccn2)nc2sc(-c3ccccc3)cc12` [Compound 223, 2-{methyl[6-phenyl-2-(pyridin-2-yl)thieno[2,3-d]pyrimidin-4-yl]amino}ethan-1-ol], the pEC50 amounted to 5.6.

Regarding `OCCN1CCN(c2nc(-c3ccccn3)nc3scc(-c4ccccc4)c23)CC1` [Compound 224, 2-{4-[5-phenyl-2-(pyridin-2-yl)thieno[2,3-d]pyrimidin-4-yl]piperazin-1-yl}ethan-1-ol], the pEC50 stood at 5.3.

`OCCNc1nc(-c2ccccn2)nc2scc(-c3ccccc3)c12` [Compound 225, 2-{[5-phenyl-2-(pyridin-2-yl)thieno[2,3-d]pyrimidin-4-yl]amino}ethan-1-ol] had a pEC50 of 5.3.

Compound `CS(=O)(=O)CCNc1nc(-c2ccccn2)nc2scc(-c3ccccc3)c12` [Compound 226, N-(2-methanesulfonylethyl)-5-phenyl-2-(pyridin-2-yl)thieno[2,3-d]pyrimidin-4-amine] came in with a pEC50 of 5.8.

In turn, `O=C1C(Nc2cc(C(F)(F)F)nc(-c3ccccn3)n2)CN1c1ccc(F)cc1` (stereo not shown) [Compound 227, 1-(4-fluorophenyl)-3-{[2-(pyridin-2-yl)-6-(trifluoromethyl)pyrimidin-4-yl]amino}azetidin-2-one] showed a pEC50 of 4.8.

On to `O=C1C(Nc2cc(C(F)(F)F)nc(-c3ccccn3)n2)CCN1c1ccccc1` (stereo not shown) [Compound 228, 1-phenyl-3-{[2-(pyridin-2-yl)-6-(trifluoromethyl)pyrimidin-4-yl]amino}pyrrolidin-2-one], for which the pEC50 worked out at 5.7.

Compound `Cc1cc(NCCCn2ccnc2)nc(-c2ccccn2)n1` [Compound 229, N-[3-(1H-imidazol-1-yl)propyl]-6-methyl-2-(pyridin-2-yl)pyrimidin-4-amine] gave a pEC50 of less than 5.0.

On to `CCc1cc(NCCN2CCN(CC)CC2)nc(-c2ccccn2)n1` [Compound 230, 6-ethyl-N-[2-(4-ethylpiperazin-1-yl)ethyl]-2-(pyridin-2-yl)pyrimidin-4-amine], for which the negative logarithm of the EC50 (pEC50) was 5.3.

Regarding `Cc1cc(NCCc2cccnc2)nc(-c2ccccn2)n1` [Compound 231, 6-methyl-2-(pyridin-2-yl)-N-[2-(pyridin-3-yl)ethyl]pyrimidin-4-amine], the pEC50 came to 5.4.

With `Cc1cc(NCCC(=O)N2CCCCCC2)nc(-c2ccccn2)n1` [Compound 232, 1-(azepan-1-yl)-3-{[6-methyl-2-(pyridin-2-yl)pyrimidin-4-yl]amino}propan-1-one], the pEC50 is recorded as 5.5. The pEC50 values of the last two compounds are within 0.2 log units of each other.

Regarding `Cc1cc(NCCNC(=O)Cc2ccccc2)nc(-c2ccccn2)n1` [Compound 233, N-(2-{[6-methyl-2-(pyridin-2-yl)pyrimidin-4-yl]amino}ethyl)-2-phenylacetamide], the pEC50 is recorded as 5.2.

The compound `CCc1cc(NCCNC(=O)NC2CCCCC2)nc(-c2ccccn2)n1` [Compound 234, 1-cyclohexyl-3-(2-{[6-ethyl-2-(pyridin-2-yl)pyrimidin-4-yl]amino}ethyl)urea] came in with a pEC50 of 5.4.

`Cc1cc(NCCC(=O)NCc2ccncc2)nc(-c2ccccn2)n1` [Compound 235, 3-{[6-methyl-2-(pyridin-2-yl)pyrimidin-4-yl]amino}-N-[(pyridin-4-yl)methyl]propanamide] had a pEC50 of 5.3.

Regarding `CCc1cc(NC2CN(c3ccccc3)C2=O)nc(-c2ccccn2)n1` (stereo not shown) [Compound 236, 3-{[6-ethyl-2-(pyridin-2-yl)pyrimidin-4-yl]amino}-1-phenylazetidin-2-one], the pEC50 worked out at 5.4. This pEC50 and that of the compound before are within 0.2 log units of each other.

Compound `Cc1cc(NC[C@@H](O)CN2CCCCC2)nc(-c2ccccn2)n1` [Compound 237, (2R)-1-{[6-methyl-2-(pyridin-2-yl)pyrimidin-4-yl]amino}-3-(piperidine-1-yl)propan-2-ol] gave a pEC50 of 5.4.

Consider `Cc1cc(NC(=O)CN(C)c2nc(-c3ccccn3)nc3scc(-c4ccccc4)c23)no1` [Compound 238, N-(5-methyl-1,2-oxazol-3-yl)-2-{methyl[5-phenyl-2-(pyridin-2-yl)thieno[2,3-d]pyrimidin-4-yl]amino}acetamide], for which the pEC50 is on record as 6.3.

`CNC(=O)CN(C)c1nc(-c2ccccn2)nc2sc(-c3ccccc3)cc12` [Compound 239, N-methyl-2-{methyl[6-phenyl-2-(pyridin-2-yl)thieno[2,3-d]pyrimidin-4-yl]amino}acetamide] showed a pEC50 of 5.8.
